From ChEMBL document CHEMBL1131272, “Aromatic analogs of arcaine inhibit MK-801 binding to the NMDA receptor” (Bioorg Med Chem Lett, 1998) come the findings set out here.

Test [1] deals with Glutamate [NMDA] receptor. The experiment in a line: Ability to inhibit MK-801 binding to NMDA receptor in the presence of 100 uM of spermidine was determined. The class given is protein-complex assay.
The target in test [2] is Glutamate [NMDA] receptor. Kind of test: Ability to inhibit MK-801 binding to the NMDA receptor was determined. The class given is protein-complex assay.

The term IC50 denotes the point on the concentration scale where inhibition reaches its midpoint.

Turning to `CCN(Cc1cccc(CN(CC)C(=N)N)c1)C(=N)N`, the results for the IC50 in test [1] and in test [2] were 75.8 µM and 5.1 µM, respectively.

`N=C(N)NCc1cccc(CNC(=N)N)c1`: the IC50 in test [1] worked out at 7.09 µM; in test [2], 1.19 µM.

In the case of `CCCN(Cc1cc(CN(CCC)C(=N)N)cc(OC)c1)C(=N)N`, the results for the IC50 in test [1] and in test [2] were 55.3 µM and 20.6 µM, respectively.

As to `CCCN(Cc1cccc(CN(CCC)C(=N)N)n1)C(=N)N`, the IC50 was determined as 95.2 µM in test [1] and 8.62 µM in test [2].

As for `N=C(N)NCc1cc(CNC(=N)N)cc(OC2CCCCC2)c1`, the IC50 in test [1] came to 9.88 µM; in test [2] it was 9.07 µM.

`N=C(N)NCc1cccc(CNC(=N)N)n1`: the IC50 in test [1] worked out at 49.3 µM; in test [2] it was 4.02 µM.

As for `CC(C)CN(Cc1cccc(CN(CC(C)C)C(=N)N)c1)C(=N)N`, the values for the IC50 in test [1] and in test [2] were 112 µM and 10.8 µM, respectively.

For the molecule `N=C(N)NCc1cc(CNC(=N)N)cc(NC(=O)c2ccccc2)c1`, the IC50 stood at 20.6 µM in test [1] and 4.34 µM in test [2].

In the case of `C=CCN(Cc1cccc(CN(CC=C)C(=N)N)c1)C(=N)N`, the half-inhibitory concentration (IC50) in test [1] was found to be 29.8 µM; in test [2], 3.85 µM.

In the case of `COc1cc(CNC(=N)N)cc(CNC(=N)N)c1`, the IC50 was determined as 5.89 µM in test [1] and 1.3 µM in test [2].

For the molecule `N=C(N)NCc1cc(CNC(=N)N)cc(-c2ccccc2)c1`, the IC50 worked out at 15.7 µM in test [1] and 5.14 µM in test [2].

Regarding `CCCN(Cc1cccc(CN(CCC)C(=N)N)c1)C(=N)N`, the IC50 in test [1] amounted to 12.2 µM; in test [2], 0.58 µM.

In the case of `CC(C)Oc1cc(CNC(=N)N)cc(CNC(=N)N)c1`, the IC50 in test [1] amounted to 10.5 µM; in test [2] it was 2.43 µM.

Turning to `CCCCN(Cc1cccc(CN(CCCC)C(=N)N)c1)C(=N)N`, the IC50 in test [1] is 9.27 µM; in test [2] it was 2.8 µM.

`N=C(N)N(Cc1ccccc1)Cc1cccc(CN(Cc2ccccc2)C(=N)N)c1`: the results for the IC50 in test [1] and in test [2] were 2.23 µM and 3.82 µM, respectively.

With `CCCN(Cc1cc(O)cc(CN(CCC)C(=N)N)c1)C(=N)N`, the IC50 was found to be 111 µM in test [1] and 10.6 µM in test [2].

In the case of `NC(N)=NCCCCN=C(N)N` [ARCAINE], the IC50 stood at 80 µM in test [1] and 9.13 µM in test [2].
